# ChEMBL document CHEMBL1201862, “PubChem BioAssay data set” (2004)
#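 Five compound concentrations were applied to cells in 96-well plates for 48 hours; endpoints were derived by simple linear interpolation of the resulting dose-response curve. At the GI50, growth is halved.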 The source made the active and inactive calls. Cut-off read from the data, not from the text of the source: active = GI50 up to about 1.1 µM and inactive = higher.
# Experiments:
# Test in all cases: DTP human tumour cell line panel, 48 h
# [1] = tested on: Hs-578T
# [2] = tested on: OVCAR-5
# [3] = tested on: RPMI-8226
# [4] = tested on: KM12
# [5] = tested on: M14
# [6] = tested on: 786-0
# [7] = tested on: CCRF-CEM
# [8] = tested on: ACHN
# [9] = tested on: SK-MEL-5
# [10] = tested on: IGROV-1
# [11] = tested on: NCI-H460
# [12] = tested on: UACC-257
# [13] = tested on: SN12C
# [14] = tested on: MOLT-4
# [15] = tested on: NCI-H23
# [16] = tested on: MDA-MB-435
# [17] = tested on: HCC 2998
# [18] = tested on: HCT-15
# [19] = tested on: RXF 393
# [20] = tested on: HT-29
# [21] = tested on: MDA-MB-231
# [22] = tested on: UACC-62
# [23] = tested on: NCI/ADR-RES
# [24] = tested on: SF-539
# [25] = tested on: NCI-H522
# [26] = tested on: U-251
# [27] = tested on: MCF7
# [28] = tested on: PC-3
# [29] = tested on: SNB-19
# [30] = tested on: T47D
# [31] = tested on: A549
# [32] = tested on: UO-31
# [33] = tested on: SK-OV-3
# [34] = tested on: OVCAR-3
# [35] = tested on: OVCAR-4
# [36] = tested on: CAKI-1
# [37] = tested on: HOP-92
# [38] = tested on: COLO 205
# [39] = tested on: SNB-75
# [40] = tested on: SK-MEL-28
# [41] = tested on: A498
# [42] = tested on: HCT-116
# [43] = tested on: SW-620
# [44] = tested on: LOX IMVI
# [45] = tested on: HOP-62
# [46] = tested on: NCI-H226
# [47] = tested on: SF-268
# [48] = tested on: EKVX
# [49] = tested on: BT-549
# [50] = tested on: OVCAR-8
# [51] = tested on: DU-145
# [52] = tested on: Malme-3M
# [53] = tested on: K562
# [54] = tested on: MDA-N
# [55] = tested on: SR
# [56] = tested on: TK-10
# [57] = tested on: SK-MEL-2
# [58] = tested on: HL-60
# [59] = tested on: SF-295
compound,measurement,setting,value
O=C(O)c1ccc(C(=O)c2ccccc2C(=O)O)cc1C(=O)O,GI50,[1],> 100 µM (inactive)
same,GI50,[2],> 100 µM (inactive)
same,GI50,[3],> 100 µM (inactive)
same,GI50,[4],> 100 µM (inactive)
same,GI50,[5],> 100 µM (inactive)
same,GI50,[6],> 100 µM (inactive)
same,GI50,[7],> 26.4 µM (inactive)
same,GI50,[8],> 100 µM (inactive)
same,GI50,[9],> 100 µM (inactive)
same,GI50,[10],> 100 µM (inactive)
same,GI50,[11],> 100 µM (inactive)
same,GI50,[12],> 100 µM (inactive)
same,GI50,[13],> 100 µM (inactive)
same,GI50,[14],> 100 µM (inactive)
same,GI50,[15],> 100 µM (inactive)
same,GI50,[16],> 100 µM (inactive)
same,GI50,[17],> 100 µM (inactive)
same,GI50,[18],> 100 µM
same,GI50,[19],> 100 µM (inactive)
same,GI50,[20],> 100 µM (inactive)
same,GI50,[21],> 100 µM (inactive)
same,GI50,[22],> 100 µM (inactive)
same,GI50,[23],> 100 µM (inactive)
same,GI50,[24],> 100 µM (inactive)
same,GI50,[25],> 100 µM (inactive)
same,GI50,[26],> 100 µM (inactive)
same,GI50,[27],> 100 µM (inactive)
same,GI50,[28],> 100 µM (inactive)
same,GI50,[29],> 100 µM (inactive)
same,GI50,[30],> 100 µM (inactive)
same,GI50,[31],> 100 µM (inactive)
same,GI50,[32],> 100 µM (inactive)
same,GI50,[33],> 100 µM (inactive)
same,GI50,[34],> 100 µM (inactive)
same,GI50,[35],> 100 µM (inactive)
same,GI50,[36],> 100 µM (inactive)
same,GI50,[37],> 100 µM (inactive)
same,GI50,[38],> 100 µM (inactive)
same,GI50,[39],> 100 µM (inactive)
same,GI50,[40],> 100 µM (inactive)
same,GI50,[41],> 100 µM (inactive)
same,GI50,[42],> 100 µM (inactive)
same,GI50,[43],> 100 µM (inactive)
same,GI50,[44],> 100 µM (inactive)
same,GI50,[45],> 100 µM (inactive)
same,GI50,[46],> 100 µM (inactive)
same,GI50,[47],> 100 µM (inactive)
same,GI50,[48],> 100 µM (inactive)
same,GI50,[49],> 100 µM (inactive)
same,GI50,[50],> 100 µM (inactive)
same,GI50,[51],> 100 µM (inactive)
same,GI50,[52],> 100 µM (inactive)
same,GI50,[53],> 100 µM (inactive)
same,GI50,[54],> 100 µM (inactive)
same,GI50,[55],> 100 µM (inactive)
same,GI50,[56],> 100 µM (inactive)
same,GI50,[57],> 100 µM (inactive)
same,GI50,[58],> 76.9 µM (inactive)
same,GI50,[59],> 100 µM (inactive)
CCOC(=O)C1=CN(Cc2ccccc2)C2ON=C(c3ccc(Cl)cc3)C2C1 (stereo not drawn),GI50,[1],11.6 µM (inactive)
same,GI50,[2],34.4 µM (inactive)
same,GI50,[3],22 µM (inactive)
same,GI50,[4],48.2 µM (inactive)
same,GI50,[5],> 54.7 µM (inactive)
same,GI50,[6],54.7 µM (inactive)
same,GI50,[7],9.1 µM (inactive)
same,GI50,[8],31 µM (inactive)
same,GI50,[9],16.5 µM (inactive)
same,GI50,[10],29.5 µM (inactive)
same,GI50,[11],40.5 µM (inactive)
same,GI50,[12],33.3 µM (inactive)
same,GI50,[13],> 52 µM (inactive)
same,GI50,[14],5.4 µM (inactive)
same,GI50,[15],35 µM (inactive)
same,GI50,[16],29 µM (inactive)
same,GI50,[17],> 100 µM (inactive)
same,GI50,[18],> 32.4 µM
same,GI50,[19],38.6 µM (inactive)
same,GI50,[20],48.6 µM (inactive)
same,GI50,[21],10.6 µM (inactive)
same,GI50,[22],17.1 µM (inactive)
same,GI50,[23],> 54.6 µM (inactive)
same,GI50,[24],> 55 µM (inactive)
same,GI50,[25],10.4 µM (inactive)
same,GI50,[26],13.5 µM (inactive)
same,GI50,[27],23.6 µM (inactive)
same,GI50,[28],> 36.6 µM (inactive)
same,GI50,[29],> 100 µM (inactive)
same,GI50,[30],5.61 µM (inactive)
same,GI50,[31],17.6 µM (inactive)
same,GI50,[32],26.9 µM (inactive)
same,GI50,[33],> 63.7 µM (inactive)
same,GI50,[34],39.3 µM (inactive)
same,GI50,[35],42 µM (inactive)
same,GI50,[36],> 52.6 µM (inactive)
same,GI50,[37],18.8 µM (inactive)
same,GI50,[38],> 51.3 µM (inactive)
same,GI50,[39],44.3 µM (inactive)
same,GI50,[40],> 56.2 µM (inactive)
same,GI50,[41],> 42.6 µM (inactive)
same,GI50,[42],19.9 µM (inactive)
same,GI50,[43],> 52.5 µM (inactive)
same,GI50,[44],> 57.5 µM (inactive)
same,GI50,[45],> 55.5 µM (inactive)
same,GI50,[46],> 56.2 µM (inactive)
same,GI50,[47],> 42.1 µM (inactive)
same,GI50,[48],20.6 µM (inactive)
same,GI50,[49],32.4 µM (inactive)
same,GI50,[50],> 54 µM (inactive)
same,GI50,[51],> 55 µM (inactive)
same,GI50,[52],> 55 µM (inactive)
same,GI50,[53],5 µM (inactive)
same,GI50,[54],17.9 µM (inactive)
same,GI50,[55],> 23.9 µM (inactive)
same,GI50,[56],> 60.5 µM (inactive)
same,GI50,[57],15.2 µM (inactive)
same,GI50,[58],23.4 µM (inactive)
same,GI50,[59],45.6 µM (inactive)
